# In US11590139B2, “Substituted aminopurine compounds, compositions thereof, and methods of treatment therewith” (Signal Pharmaceuticals, LLC, priority 2014, dated 2023):
# Tested on: Lox-IMVI melanoma cell line
# Assay: Lox-IMVI anti-proliferative assay (growth inhibition, Cell Titer-Glo)
# Type: cell-based, human
# Conditions: Homo sapiens; IC50 activity level in the cell-based Lox-IMVI anti-proliferative assay; read-out: Activity
# In short: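 Lox-IMVI cells in RPMI+10% FBS exposed 72 h at 37 °C to 10-point, 3-fold dilutions (0.5 nM–10 μM; 0.2% DMSO final), in duplicate. Viability by Cell Titer-Glo luminescence, with a t0 cell-number reading; data as % of DMSO control; IC50 from a four-parameter logistic fit.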
row,IC50,SMILES
1,> 1000 nM,"C[C@@H]1CC[C@@H](Nc2ncc3nc(Nc4c(F)ccc(F)c4F)n([C@H]4CC[C@@H](C(N)=O)CC4)c3n2)C[C@H]1O [Example 359, (1S,4s)-4-(2-((1R,3R,4R)-3-hydroxy-4-methylcyclohexylamino)-8-(2,3,6-trifluorophenylamino)-9H-purin-9-yl)cyclohexanecarboxamide]"
2,> 1000 nM,"Cc1cc(Cl)cc(Cl)c1Nc1nc2cnc(NC3CCOCC3)nc2n1[C@H]1CC[C@@H](C(N)=O)CC1 [Example 103, (1s,4s)-4-(8-(2,4-dichloro-6-methylphenylamino)-2-(tetrahydro-2H-pyran-4-ylamino)-9H-purin-9-yl)cyclohexanecarboxamide]"
3,> 1000 nM,"NC(=O)[C@H]1CC[C@@H](n2c(Nc3cc(F)cc(Cl)c3F)nc3cnc(N[C@H]4C[C@H](O)C4)nc32)CC1 [Example 287, (1s,4s)-4-(8-(3-chloro-2,5-difluorophenylamino)-2-((1R,3r)-3-hydroxycyclobutylamino)-9H-purin-9-yl)cyclohexanecarboxamide]"
4,> 1000 nM,"CC[C@H](C)Nc1ncc2nc(Nc3c(F)cccc3Cl)n([C@H]3CC[C@@H](C(N)=O)CC3)c2n1 [Example 337, (1R,4s)-4-(2-(sec-butylamino)-8-(2-chloro-6-fluorophenylamino)-9H-purin-9-yl)cyclohexanecarboxamide]"
5,> 1000 nM,"NC(=O)[C@H]1CC[C@@H](n2c(Nc3ccc(Cl)c(F)c3F)nc3cnc(NC4CC(F)(F)C4)nc32)CC1 [Example 232, (1s,4s)-4-(8-(4-chloro-2,3-difluorophenylamino)-2-(3,3-difluorocyclobutylamino)-9H-purin-9-yl)cyclohexanecarboxamide]"
6,250 to 500 nM,"NC(=O)[C@H]1CC[C@@H](n2c(Nc3c(Cl)cc(Cl)cc3Cl)nc3cnc(N[C@@H]4CCOC4)nc32)CC1 [Example 76, (1S,4s)-4-(2-((R)-tetrahydrofuran-3-ylamino)-8-(2,4,6-trichlorophenylamino)-9H-purin-9-yl)cyclohexanecarboxamide]"
7,> 1000 nM,"NC(=O)[C@H]1CC[C@@H](n2c(Nc3c(F)cccc3Cl)nc3cnc(NC4COC4)nc32)CC1 [Example 57, (1s,4s)-4-(8-(2-chloro-6-fluorophenylamino)-2-(oxetan-3-ylamino)-9H-purin-9-yl)cyclohexanecarboxamide]"
8,> 1000 nM,"NC(=O)[C@H]1CC[C@@H](n2c(Nc3c(F)cc(Cl)cc3F)nc3cnc(NC4CC(F)(F)C4)nc32)CC1 [Example 229, (1s,4s)-4-(8-(4-chloro-2,6-difluorophenylamino)-2-(3,3-difluorocyclobutylamino)-9H-purin-9-yl)cyclohexanecarboxamide]"
9,> 1000 nM,"NC(=O)[C@H]1CC[C@@H](n2c(Nc3c(F)ccc(Cl)c3F)nc3cnc(N[C@H]4C[C@H](O)C4)nc32)CC1 [Example 286, (1s,4s)-4-(8-(3-chloro-2,6-difluorophenylamino)-2-((1r,3r)-3-hydroxycyclobutylamino)-9H-purin-9-yl)cyclohexanecarboxamide]"

# Same assay, conditions: Homo sapiens; Lox-IMVI anti-proliferative assay, IC50 activity level; read-out: Activity
row,SMILES,IC50
1,"NC(=O)[C@H]1CC[C@@H](n2c(Nc3c(F)cccc3F)nc3cnc(N[C@@H]4CCC[C@@H](O)C4)nc32)CC1 [Example 419, (1S,4s)-4-(8-(2,6-difluorophenylamino)-2-((1R,3R)-3-hydroxycyclohexylamino)-9H-purin-9-yl)cyclohexanecarboxamide]",> 1000 nM
2,"C[C@]1(C(N)=O)CC[C@H](n2c(Nc3c(F)cc(Cl)cc3Cl)nc3cnc(NC4CCCC4)nc32)CC1 [Example 492, (1r,4r)-4-(2-(cyclopentylamino)-8-(2,4-dichloro-6-fluorophenylamino)-9H-purin-9-yl)-1-methylcyclohexanecarboxamide]",500 to 1000 nM
3,"N#Cc1cc(F)c(Nc2nc3cnc(N[C@@H]4CCC[C@H](O)C4)nc3n2[C@H]2CC[C@@H](C(N)=O)CC2)c(Cl)c1 [Example 456, (1S,4s)-4-(8-(2-chloro-4-cyano-6-fluorophenylamino)-2-((1R,3S)-3-hydroxycyclohexylamino)-9H-purin-9-yl)cyclohexanecarboxamide]",500 to 1000 nM
4,"CC(C)(CO)CNc1ncc2nc(Nc3c(Cl)cc(C#N)cc3Cl)n([C@H]3CC[C@@H](C(N)=O)CC3)c2n1 [Example 482, (1s,4s)-4-(8-(2,6-dichloro-4-cyanophenylamino)-2-(3-hydroxy-2,2-dimethylpropylamino)-9H-purin-9-yl)cyclohexanecarboxamide]",> 1000 nM
5,"C[C@]1(C(N)=O)CC[C@@H](n2c(Nc3c(Cl)cc(C(F)(F)F)cc3Cl)nc3cnc(N[C@@H]4CCC[C@H](O)C4)nc32)CC1 [Example 577, (1S,4s)-4-(8-(2,6-dichloro-4-(trifluoromethyl)phenylamino)-2-((1R,3S)-3-hydroxycyclohexylamino)-9H-purin-9-yl)-1-methylcyclohexanecarboxamide]",> 1000 nM
6,"COC(=O)N1CCCC(Nc2ncc3nc(Nc4c(Cl)cccc4Cl)n([C@H]4CC[C@@H](C(N)=O)CC4)c3n2)C1 (stereo partly drawn) [Example 405, (R)-methyl 3-(9-((1s,4S)-4-carbamoylcyclohexyl)-8-(2,6-dichlorophenylamino)-9H-purin-2-ylamino)piperidine-1-carboxylate]",> 1000 nM
7,"COC(=O)N1CCCC(Nc2ncc3nc(Nc4c(F)cc(Cl)cc4Cl)n([C@H]4CC[C@@H](C(N)=O)CC4)c3n2)C1 (stereo partly drawn) [Example 412, (R)-methyl 3-(9-((1s,4S)-4-carbamoylcyclohexyl)-8-(2,4-dichloro-6-fluorophenylamino)-9H-purin-2-ylamino)piperidine-1-carboxylate]",250 to 500 nM
8,"NC(=O)[C@H]1CC[C@@H](n2c(Nc3c(Cl)cc(F)cc3Cl)nc3cnc(N[C@@H]4CCCC[C@H]4O)nc32)CC1 [Example 469, (1S,4s)-4-(8-(2,6-dichloro-4-fluorophenylamino)-2-((1R,2R)-2-hydroxycyclohexylamino)-9H-purin-9-yl)cyclohexanecarboxamide]",> 1000 nM

# Continued, values first:
row,IC50,SMILES
1,250 to 500 nM,"NC(=O)[C@H]1CC[C@@H](n2c(Nc3c(F)cc(F)cc3Cl)nc3cnc(N[C@H]4CCC(F)(F)C4)nc32)CC1 [Example 589, (1R,4s)-4-(8-(2-chloro-4,6-difluorophenylamino)-2-((S)-3,3-difluorocyclopentylamino)-9H-purin-9-yl)cyclohexanecarboxamide]"
2,> 1000 nM,"C[C@]1(C(N)=O)CC[C@@H](n2c(Nc3c(Cl)cc(OC(F)(F)F)cc3Cl)nc3cnc(NC4CCC4)nc32)CC1 [Example 598, (1s,4s)-4-(2-(cyclobutylamino)-8-(2,6-dichloro-4-(trifluoromethoxy)phenylamino)-9H-purin-9-yl)-1-methylcyclohexanecarboxamide]"

# Same assay, conditions: Homo sapiens; Lox-IMVI melanoma cell line, anti-proliferative assay; read-out: Activity (IC50 activity level)
row,IC50,SMILES
1,> 1000 nM,"N#Cc1cc(Cl)c(Nc2nc3cnc(NC[C@@H]4CCCC[C@H]4O)nc3n2[C@H]2CC[C@@H](C(N)=O)CC2)c(Cl)c1 [Example 665, (1R,4s)-4-(8-(2,6-dichloro-4-cyanophenylamino)-2-(((1S,2R)-2-hydroxycyclohexyl)methylamino)-9H-purin-9-yl)cyclohexanecarboxamide]"
2,500 to 1000 nM,"CC(C)OC(=O)N1CCC[C@@H](Nc2ncc3nc(Nc4c(Cl)cc(C#N)cc4Cl)n([C@H]4CC[C@@H](C(N)=O)CC4)c3n2)C1 [Example 769, (R)-isopropyl 3-(9-((1s,4S)-4-carbamoylcyclohexyl)-8-(2,6-dichloro-4-cyanophenylamino)-9H-purin-2-ylamino)piperidine-1-carboxylate]"
3,< 250 nM,"C[C@]1(C(N)=O)CC[C@@H](n2c(Nc3c(F)cc(Cl)cc3Cl)nc3cnc(NC4CCOCC4)nc32)CC1 [Example 674, (1s,4s)-4-(8-(2,4-dichloro-6-fluorophenylamino)-2-(tetrahydro-2H-pyran-4-ylamino)-9H-purin-9-yl)-1-methylcyclohexanecarboxamide]"
4,> 1000 nM,"NC(=O)[C@H]1CC[C@@H](n2c(Nc3c(Cl)cc(F)cc3Cl)nc3cnc(N[C@@H]4CCCN(c5ccccc5)C4)nc32)CC1 [Example 749, (1S,4s)-4-(8-(2,6-dichloro-4-fluorophenylamino)-2-((R)-1-phenylpiperidin-3-ylamino)-9H-purin-9-yl)cyclohexanecarboxamide]"
5,> 1000 nM,"CS(=O)(=O)C1CC(Nc2ncc3nc(Nc4c(Cl)cc(C#N)cc4Cl)n([C@H]4CC[C@@H](C(N)=O)CC4)c3n2)C1 (stereo partly shown) [Example 730, (1s,4s)-4-(8-(2,6-dichloro-4-cyanophenylamino)-2-(3-(methylsulfonyl)cyclobutylamino)-9H-purin-9-yl)cyclohexanecarboxamide]"
6,< 250 nM,"C[C@]1(C(N)=O)CC[C@@H](n2c(Nc3c(F)cc(C#N)cc3Cl)nc3cnc(NC4CCC4)nc32)CC1 [Example 600, (1s,4s)-4-(8-(2-chloro-4-cyano-6-fluorophenylamino)-2-(cyclobutylamino)-9H-purin-9-yl)-1-methylcyclohexanecarboxamide]"
7,> 1000 nM,"NC(=O)[C@H]1CC[C@@H](n2c(Nc3c(Cl)cc(Cl)cc3Cl)nc3cnc(NC4CCC(c5ncno5)CC4)nc32)CC1 (stereo partly shown) [Example 678, (1s,4s)-4-(2-(4-(1,2,4-oxadiazol-5-yl)cyclohexylamino)-8-(2,4,6-trichlorophenylamino)-9H-purin-9-yl)cyclohexanecarboxamide]"
8,> 1000 nM,"NC(=O)[C@H]1CC[C@@H](n2c(Nc3c(F)cc(Cl)cc3Cl)nc3cnc(N[C@@H]4CCCN(C(=O)Nc5ccccc5)C4)nc32)CC1 [Example 783, (R)-3-(9-((1s,4S)-4-carbamoylcyclohexyl)-8-(2,4-dichloro-6-fluorophenylamino)-9H-purin-2-ylamino)-N-phenylpiperidine-1-carboxamide]"
9,500 to 1000 nM,"CS(=O)(=O)N1CCC[C@@H](Nc2ncc3nc(Nc4c(Cl)cc(Cl)cc4Cl)n([C@H]4CC[C@@H](C(N)=O)CC4)c3n2)C1 [Example 700, (1S,4s)-4-(2-((R)-1-(methylsulfonyl)piperidin-3-ylamino)-8-(2,4,6-trichlorophenylamino)-9H-purin-9-yl)cyclohexanecarboxamide]"
